Values after ≈ are worked out from the molar mass of the structure shown.
Assays:
Streptococcus pneumoniae [1] = test: Antibacterial activity against erythromycin-susceptible Streptococcus pneumoniae ATCC 49619
Streptococcus pneumoniae [2] = test: Antibacterial activity against erythromycin-resistant Streptococcus pneumoniae B1 encoded by erm gene
Streptococcus pneumoniae [3] = test: Antibacterial activity against erythromycin-resistant Streptococcus pneumoniae A22072 encoded by mef gene
Streptococcus pneumoniae [4] = test: Antibacterial activity against erythromycin-resistant Streptococcus pneumoniae AB11 encoded by erm and mef gene

SMILES | MIC (Streptococcus pneumoniae [1]) [µg/mL] | MIC (Streptococcus pneumoniae [2]) [µg/mL] | MIC (Streptococcus pneumoniae [3]) [µg/mL] | MIC (Streptococcus pneumoniae [4]) [µg/mL]
CC[C@H]1OC(=O)[C@H](C)[C@@H](O[C@H]2C[C@@](C)(OC)[C@@H](OC(=O)NCCc3ccccc3)[C@H](C)O2)[C@H](C)[C@@H](O[C@@H]2O[C@H](C)C[C@H](N(C)C)[C@H]2O)[C@@](C)(O)C[C@@H](C)CN(C)[C@H](C)[C@@H](O)[C@]1(C)O | 0.06 (≈ 0.067 µM) | 8 (≈ 8.93 µM) | 1 (≈ 1.12 µM) | 32 (≈ 35.7 µM)
CCCCCNC(=O)O[C@@H]1[C@@H](C)N(C)C[C@H](C)C[C@](C)(O)[C@H](O[C@@H]2O[C@H](C)C[C@H](N(C)C)[C@H]2O)[C@@H](C)[C@H](O[C@H]2C[C@@](C)(OC)[C@@H](OC(=O)NCc3ccc(OC)cc3)[C@H](C)O2)[C@@H](C)C(=O)O[C@H](CC)[C@@]1(C)O | 0.06 (≈ 0.0585 µM) | 0.5 (≈ 0.488 µM) | 1 (≈ 0.975 µM) | 32 (≈ 31.2 µM)
CCCCCNC(=O)O[C@@H]1[C@@H](C)N(C)C[C@H](C)C[C@](C)(O)[C@H](O[C@@H]2O[C@H](C)C[C@H](N(C)C)[C@H]2O)[C@@H](C)[C@H](O[C@H]2C[C@@](C)(OC)[C@@H](OC(=O)NCCc3ccccc3Cl)[C@H](C)O2)[C@@H](C)C(=O)O[C@H](CC)[C@@]1(C)O | < 0.03 | 0.5 (≈ 0.479 µM) | 0.5 (≈ 0.479 µM) | 16 (≈ 15.3 µM)
CC[C@H]1OC(=O)[C@H](C)[C@@H](O[C@H]2C[C@@](C)(OC)[C@@H](OC(=O)NCCc3ccccc3Cl)[C@H](C)O2)[C@H](C)[C@@H](O[C@@H]2O[C@H](C)C[C@H](N(C)C)[C@H]2O)[C@@](C)(O)C[C@@H](C)CN(C)[C@H](C)[C@@H](OC(=O)NCc2ccccc2)[C@]1(C)O | < 0.03 | 0.25 (≈ 0.235 µM) | 0.25 (≈ 0.235 µM) | 4 (≈ 3.76 µM)
CCCNC(=O)O[C@H]1[C@H](C)O[C@@H](O[C@H]2[C@H](C)[C@@H](O[C@@H]3O[C@H](C)C[C@H](N(C)C)[C@H]3O)[C@@](C)(O)C[C@@H](C)CN(C)[C@H](C)[C@@H](O)[C@](C)(O)[C@@H](CC)OC(=O)[C@@H]2C)C[C@@]1(C)OC | 0.12 (≈ 0.144 µM) | 64 (≈ 76.7 µM) | 4 (≈ 4.8 µM) | 64 (≈ 76.7 µM)
CC[C@H]1OC(=O)[C@H](C)[C@@H](O[C@H]2C[C@@](C)(OC)[C@@H](OC(=O)NCCc3ccc(O)cc3)[C@H](C)O2)[C@H](C)[C@@H](O[C@@H]2O[C@H](C)C[C@H](N(C)C)[C@H]2O)[C@@](C)(O)C[C@@H](C)CN(C)[C@H](C)[C@H]2OC(=O)O[C@@]21C | < 0.03 | 8 (≈ 8.53 µM) | 1 (≈ 1.07 µM) | 4 (≈ 4.26 µM)
CC[C@H]1OC(=O)[C@H](C)[C@@H](O[C@H]2C[C@@](C)(OC)[C@@H](OC(=O)NCc3ccccc3)[C@H](C)O2)[C@H](C)[C@@H](O[C@@H]2O[C@H](C)C[C@H](N(C)C)[C@H]2O)[C@@](C)(O)C[C@@H](C)CN(C)[C@H](C)[C@@H](O)[C@]1(C)O | < 0.03 | 16 (≈ 18.1 µM) | 0.06 (≈ 0.068 µM) | 64 (≈ 72.6 µM)
CC[C@H]1OC(=O)[C@H](C)[C@@H](O[C@H]2C[C@@](C)(OC)[C@@H](OC(=O)NCCc3ccccc3Cl)[C@H](C)O2)[C@H](C)[C@@H](O[C@@H]2O[C@H](C)C[C@H](N(C)C)[C@H]2O)[C@@](C)(O)C[C@@H](C)CN(C)[C@H](C)[C@@H](OC(=O)NCc2ccc(F)cc2)[C@]1(C)O | 0.06 (≈ 0.0555 µM) | 0.25 (≈ 0.231 µM) | 0.25 (≈ 0.231 µM) | 4 (≈ 3.7 µM)
CCCCCNC(=O)O[C@H]1[C@H](C)O[C@@H](O[C@H]2[C@H](C)[C@@H](O[C@@H]3O[C@H](C)C[C@H](N(C)C)[C@H]3O)[C@@](C)(O)C[C@@H](C)CN(C)[C@H](C)[C@H]3OC(=O)O[C@]3(C)[C@@H](CC)OC(=O)[C@@H]2C)C[C@@]1(C)OC | 0.06 (≈ 0.0676 µM) | 16 (≈ 18 µM) | 8 (≈ 9.01 µM) | 16 (≈ 18 µM)
CC[C@H]1OC(=O)[C@H](C)[C@@H](O[C@H]2C[C@@](C)(OC)[C@@H](OC(=O)NCCc3ccc(O)cc3)[C@H](C)O2)[C@H](C)[C@@H](O[C@@H]2O[C@H](C)C[C@H](N(C)C)[C@H]2O)[C@@](C)(O)C[C@@H](C)CN(C)[C@H](C)[C@@H](O)[C@]1(C)O | < 0.03 | 4 (≈ 4.39 µM) | 0.5 (≈ 0.548 µM) | 2 (≈ 2.19 µM)
CC[C@H]1OC(=O)[C@H](C)[C@@H](O[C@H]2C[C@@](C)(OC)[C@@H](OC(=O)NCCc3ccccc3)[C@H](C)O2)[C@H](C)[C@@H](O[C@@H]2O[C@H](C)C[C@H](N(C)C)[C@H]2O)[C@@](C)(O)C[C@@H](C)CN(C)[C@H](C)[C@H]2OC(=O)O[C@@]21C | 0.06 (≈ 0.0651 µM) | 8 (≈ 8.68 µM) | 0.06 (≈ 0.0651 µM) | 2 (≈ 2.17 µM)
CC[C@H]1OC(=O)[C@H](C)[C@@H](O[C@H]2C[C@@](C)(OC)[C@@H](OC(=O)NCCc3ccc4c(c3)OCO4)[C@H](C)O2)[C@H](C)[C@@H](O[C@@H]2O[C@H](C)C[C@H](N(C)C)[C@H]2O)[C@@](C)(O)C[C@@H](C)CN(C)[C@H](C)[C@@H](O)[C@]1(C)O | < 0.03 | 8 (≈ 8.51 µM) | 0.5 (≈ 0.532 µM) | 8 (≈ 8.51 µM)
CC[C@H]1OC(=O)[C@H](C)[C@@H](O[C@H]2C[C@@](C)(OC)[C@@H](OC(=O)NC3CCCCC3)[C@H](C)O2)[C@H](C)[C@@H](O[C@@H]2O[C@H](C)C[C@H](N(C)C)[C@H]2O)[C@@](C)(O)C[C@@H](C)CN(C)[C@H](C)[C@H]2OC(=O)O[C@@]21C | 0.06 (≈ 0.0667 µM) | 16 (≈ 17.8 µM) | 2 (≈ 2.22 µM) | 32 (≈ 35.5 µM)
CC[C@H]1OC(=O)[C@H](C)[C@@H](O[C@H]2C[C@@](C)(OC)[C@@H](OC(=O)NCc3ccc(OC)cc3)[C@H](C)O2)[C@H](C)[C@@H](O[C@@H]2O[C@H](C)C[C@H](N(C)C)[C@H]2O)[C@@](C)(O)C[C@@H](C)CN(C)[C@H](C)[C@@H](O)[C@]1(C)O | 0.12 (≈ 0.132 µM) | 64 (≈ 70.2 µM) | 4 (≈ 4.39 µM) | 32 (≈ 35.1 µM)
CC[C@H]1OC(=O)[C@H](C)[C@@H](O[C@H]2C[C@@](C)(OC)[C@@H](OC(=O)NCCc3ccc(O)cc3)[C@H](C)O2)[C@H](C)[C@@H](O[C@@H]2O[C@H](C)C[C@H](N(C)C)[C@H]2O)[C@@](C)(O)C[C@@H](C)CN(C)[C@H](C)[C@@H](OC(=O)NCCc2ccccc2Cl)[C@]1(C)O | < 0.03 | 0.25 (≈ 0.229 µM) | 0.25 (≈ 0.229 µM) | 16 (≈ 14.6 µM)
C=CCNC(=O)O[C@H]1[C@H](C)O[C@@H](O[C@H]2[C@H](C)[C@@H](O[C@@H]3O[C@H](C)C[C@H](N(C)C)[C@H]3O)[C@@](C)(O)C[C@@H](C)CN(C)[C@H](C)[C@@H](O)[C@](C)(O)[C@@H](CC)OC(=O)[C@@H]2C)C[C@@]1(C)OC | < 0.03 | 16 (≈ 19.2 µM) | 1 (≈ 1.2 µM) | 32 (≈ 38.5 µM)
CCCCNC(=O)O[C@@H]1[C@@H](C)N(C)C[C@H](C)C[C@](C)(O)[C@H](O[C@@H]2O[C@H](C)C[C@H](N(C)C)[C@H]2O)[C@@H](C)[C@H](O[C@H]2C[C@@](C)(OC)[C@@H](OC(=O)NCCc3ccc(O)cc3)[C@H](C)O2)[C@@H](C)C(=O)O[C@H](CC)[C@@]1(C)O | < 0.03 | 0.25 (≈ 0.247 µM) | 1 (≈ 0.989 µM) | 128 (≈ 127 µM)
CCCCNC(=O)O[C@H]1[C@H](C)O[C@@H](O[C@H]2[C@H](C)[C@@H](O[C@@H]3O[C@H](C)C[C@H](N(C)C)[C@H]3O)[C@@](C)(O)C[C@@H](C)CN(C)[C@H](C)[C@@H](O)[C@](C)(O)[C@@H](CC)OC(=O)[C@@H]2C)C[C@@]1(C)OC | < 0.03 | 8 (≈ 9.43 µM) | 1 (≈ 1.18 µM) | 128 (≈ 151 µM)
CC[C@H]1OC(=O)[C@H](C)[C@@H](O[C@H]2C[C@@](C)(OC)[C@@H](OC(=O)NCCc3ccccc3Cl)[C@H](C)O2)[C@H](C)[C@@H](O[C@@H]2O[C@H](C)C[C@H](N(C)C)[C@H]2O)[C@@](C)(O)C[C@@H](C)CN(C)[C@H](C)[C@@H](OC(=O)NCCc2ccc(O)cc2)[C@]1(C)O | < 0.03 | 0.25 (≈ 0.229 µM) | 0.06 (≈ 0.0549 µM) | 16 (≈ 14.6 µM)
CC[C@H]1OC(=O)[C@H](C)[C@@H](O[C@H]2C[C@@](C)(OC)[C@@H](OC(=O)NCc3ccc(F)cc3)[C@H](C)O2)[C@H](C)[C@@H](O[C@@H]2O[C@H](C)C[C@H](N(C)C)[C@H]2O)[C@@](C)(O)C[C@@H](C)CN(C)[C@H](C)[C@@H](OC(=O)NCCc2ccccc2Cl)[C@]1(C)O | < 0.03 | 0.25 (≈ 0.231 µM) | 0.12 (≈ 0.111 µM) | 2 (≈ 1.85 µM)
CCCCNC(=O)O[C@@H]1[C@@H](C)N(C)C[C@H](C)C[C@](C)(O)[C@H](O[C@@H]2O[C@H](C)C[C@H](N(C)C)[C@H]2O)[C@@H](C)[C@H](O[C@H]2C[C@@](C)(OC)[C@@H](OC(=O)NCc3ccc(OC)cc3)[C@H](C)O2)[C@@H](C)C(=O)O[C@H](CC)[C@@]1(C)O | 0.06 (≈ 0.0593 µM) | 0.5 (≈ 0.494 µM) | 1 (≈ 0.989 µM) | 128 (≈ 127 µM)
CCCCCNC(=O)O[C@H]1[C@H](C)O[C@@H](O[C@H]2[C@H](C)[C@@H](O[C@@H]3O[C@H](C)C[C@H](N(C)C)[C@H]3O)[C@@](C)(O)C[C@@H](C)CN(C)[C@H](C)[C@@H](O)[C@](C)(O)[C@@H](CC)OC(=O)[C@@H]2C)C[C@@]1(C)OC | < 0.03 | 8 (≈ 9.28 µM) | 0.5 (≈ 0.58 µM) | 32 (≈ 37.1 µM)
CC[C@H]1OC(=O)[C@H](C)[C@@H](O[C@H]2C[C@@](C)(OC)[C@@H](OC(=O)NC(C)C)[C@H](C)O2)[C@H](C)[C@@H](O[C@@H]2O[C@H](C)C[C@H](N(C)C)[C@H]2O)[C@@](C)(O)C[C@@H](C)CN(C)[C@H](C)[C@@H](O)[C@]1(C)O | 0.12 (≈ 0.144 µM) | 128 (≈ 153 µM) | 8 (≈ 9.59 µM) | 256 (≈ 307 µM)
CC[C@H]1OC(=O)[C@H](C)[C@@H](O[C@H]2C[C@@](C)(OC)[C@@H](OC(=O)NC(C)C)[C@H](C)O2)[C@H](C)[C@@H](O[C@@H]2O[C@H](C)C[C@H](N(C)C)[C@H]2O)[C@@](C)(O)C[C@@H](C)CN(C)[C@H](C)[C@H]2OC(=O)O[C@@]21C | 0.12 (≈ 0.14 µM) | 16 (≈ 18.6 µM) | 8 (≈ 9.3 µM) | 128 (≈ 149 µM)
CC[C@H]1OC(=O)[C@H](C)[C@@H](O[C@H]2C[C@@](C)(OC)[C@@H](OC(=O)NCc3ccc(F)cc3)[C@H](C)O2)[C@H](C)[C@@H](O[C@@H]2O[C@H](C)C[C@H](N(C)C)[C@H]2O)[C@@](C)(O)C[C@@H](C)CN(C)[C@H](C)[C@@H](OC(=O)NCCc2ccccc2)[C@]1(C)O | < 0.03 | 0.25 (≈ 0.239 µM) | 0.06 (≈ 0.0573 µM) | 32 (≈ 30.6 µM)

— ChEMBL document CHEMBL1154057, “Synthesis and antibacterial activity of novel 15-membered macrolide derivatives: 4''-carbamate, 11,12-cyclic carbonate-4''-carbamate and 11,4''-di-O-arylcarbamoyl analogs of azithromycin” (2009)
